Data: ChEMBL document CHEMBL5104145, “Synthesis of antiplasmodial 2-aminothieno[3,2-d]pyrimidin-4(3H)-one analogues using the scaffold hopping strategy” (Eur J Med Chem, 2022)
In brackets after ≈: the same amount, converted by molar mass.

Tests used:
[1] = Permeability of compound at 100 uM at pH 5 incubated for 4 hrs by PAMPA-GIT assay; assay type: ADME; conditions: read-out: permeability
[2] = Permeability of compound at 100 uM at pH 6 incubated for 4 hrs by PAMPA-GIT assay; assay type: ADME; conditions: read-out: permeability
[3] = Permeability of compound at 100 uM at pH 7.4 incubated for 4 hrs by PAMPA-GIT assay; assay type: ADME; conditions: read-out: permeability
[4] = Thermodynamic solubility of compound at pH 7.4 incubated for 24 hrs by shake-flask method; assay type: physicochemical; conditions: buffer, read-out: Therm_solubility
Plasmodium falciparum [5] = assay: Antiplasmodial activity against Plasmodium falciparum K1 assessed as reduction in parasite growth; assay type: functional, organism-based
Plasmodium falciparum [6] = assay: Antiplasmodial activity against chloroquine,pyrimethamine and proguanil resistant blood stage Plasmodium falciparum K1 assessed as reduction in parasite growth incubated for 72 hrs by SYBR Green I fluorescence-based method; assay type: functional, organism-based
[7] = (§1) Cytotoxicity against human HepG2 cells assessed as reduction in cell viability incubated for 72 hrs by MTT assay; assay type: toxicity, cell-based; conditions: HepG2 cells
[8] = Selectivity index, ratio of CC50 for cytotoxicity against human HepG2 cells to EC50 for antiplasmodial activity against chloroquine,pyrimethamine and proguanil resistant blood stage Plasmodium falciparum K1; assay type: toxicity, cell-based; conditions: for selectivity ratio: HepG2 cells, read-out: Ratio CC50/EC50
[9] = Solubility of compound in culture media; assay type: physicochemical
HepG2 = assay: as §1; assay type: toxicity, cell-based; conditions: hepg2, 72 h, 72 h
[10] = Plasmodium falciparum, K1, 72 h

SMILES	CC50 at 72 h [7]	EC50 (Plasmodium falciparum [6]; [10])	selectivity ratio [8]	further results
Cc1ccc(-c2cc3nc(NC(C)(C)C)[nH]c(=O)c3s2)cc1				Papp at 4 h, 100 µM [1]: 4.18 ×10⁻⁶ cm/s; Papp at 4 h, 100 µM [2]: 1.86 ×10⁻⁶ cm/s; Papp at 4 h, 100 µM [3]: 2.05 ×10⁻⁶ cm/s; solubility thermodynamic at 24 h [4]: 1.56 µM (≈ 0.489 µg/mL)
Cc1ccc(-c2ccc3nc(NC(C)(C)C)[nH]c(=O)c3c2)cc1				EC50 (Plasmodium falciparum [5]): > 5 µM
Cc1ccc(-c2ccc3c(=O)[nH]c(NC(C)(C)C)nc3c2)cc1				EC50 (Plasmodium falciparum [5]): > 5 µM
Cc1ccc(-c2cc3nc(NC(C)(C)C)[nH]c(=O)c3s2)cc1.Cl				Papp at 4 h, 100 µM [3]: 0.46 ×10⁻⁶ cm/s; solubility thermodynamic at 24 h [4]: 7.92 µM
Cc1ccc(-c2cc3nc(NC(C)(C)C)[nH]c(=O)c3o2)cc1	10.9 µM			EC50 (Plasmodium falciparum [6]): 0.8 µM; Ratio CC50/EC50 [8]: 13.6
CC(C)(C)Nc1nc2cc(-c3ccc(F)cc3)oc2c(=O)[nH]1	> 3.12 µM	2.9 µM	> 1.1	solubility [9]: Insoluble
CC(C)(C)Nc1nc2sc(-c3ccccc3)cc2c(=O)[nH]1	> 12.5 µM	33.8 µM	> 0.4	
Cc1ccc(-c2cc3nc(NC(C)C)[nH]c(=O)c3o2)cc1	20.4 µM	0.09 µM	227	Papp at 4 h, 100 µM [1]: 41.1 ×10⁻⁶ cm/s; Papp at 4 h, 100 µM [2]: 64.3 ×10⁻⁶ cm/s; Papp at 4 h, 100 µM [3]: 76.9 ×10⁻⁶ cm/s; solubility thermodynamic at 24 h [4]: 11.5 µM (≈ 3.26 µg/mL)
Cc1ccc(-c2cc3nc(NC(C)C)[nH]c(=O)c3[se]2)cc1		0.8 µM		CC50 (HepG2): > 25 µM; Ratio CC50/EC50 [8]: > 31.3
Cc1ccc(-c2nc3nc(NC(C)(C)C)[nH]c(=O)c3s2)cc1	> 5 µM	4.6 µM	> 1.1	
Cc1ccc(-c2cc3nc(NC(C)(C)C)[nH]c(=O)c3[se]2)cc1				EC50 (Plasmodium falciparum [6]): 1.3 µM; CC50 (HepG2): > 7.8 µM; Ratio CC50/EC50 [8]: > 6
Cc1ccc(-c2cc3nc(NC(C)(C)C)[nH]c(=O)c3[se]2)cc1.Cl				EC50 (Plasmodium falciparum [6]): 0.13 µM; CC50 (HepG2): > 3.12 µM; Ratio CC50/EC50 [8]: > 24
Cc1c(-c2ccc(F)cc2)sc2c(=O)[nH]c(NC(C)C)nc12	19.7 µM	4.3 µM	4.6	
CC(C)(C)Nc1nc2sc(-c3ccc(Cl)cc3)cc2c(=O)[nH]1	21.4 µM	> 50 µM	< 0.4	
CC(C)(C)Nc1nc2nc(-c3ccc(Cl)cc3)sc2c(=O)[nH]1				solubility [9]: Insoluble
Cc1ccc(-c2cc3nc(NC(C)(C)C)[nH]c(=O)c3o2)cc1.Cl				EC50 (Plasmodium falciparum [6]): 0.3 µM; CC50 (HepG2): 21.7 µM; Ratio CC50/EC50 [8]: 72.3
CC(C)(C)Nc1nc2cc(-c3ccc(Cl)cc3)oc2c(=O)[nH]1	> 6.25 µM	0.4 µM	> 15.6	solubility [9]: Insoluble
Cc1ccc(-c2cc3nc(NC(C)C)[nH]c(=O)c3[se]2)cc1.Cl				EC50 (Plasmodium falciparum [6]): 0.77 µM; CC50 (HepG2): > 10 µM; Ratio CC50/EC50 [8]: > 13
CC(C)(C)Nc1nc2nc(-c3ccc(F)cc3)sc2c(=O)[nH]1				solubility [9]: Insoluble
CC(C)(C)Nc1nc2sc(-c3ccc(F)cc3)cc2c(=O)[nH]1	> 25 µM	> 12.5 µM		
Cc1ccc(-c2cc3c(=O)[nH]c(NC(C)(C)C)nc3s2)cc1	20.5 µM	32.4 µM	0.6	
CC(C)(C)Nc1nc2nc(-c3ccccc3)sc2c(=O)[nH]1	> 25 µM	> 12.5 µM		
CCOC(=O)c1[nH]c(-c2ccc(C)cc2)c2c(=O)[nH]c(NC(C)(C)C)nc12	7.4 µM	17.1 µM	0.4	
Cc1c(-c2ccc(Cl)cc2)sc2c(=O)[nH]c(NC(C)C)nc12	> 25 µM	4.4 µM	> 5.7	
